Laboratory results published in patent publication US20020019374A1, “Salicylohydrazide derivatives, processes and intermediates for their preparation, compositions comprising them, and their use” (priority 2000, published 2002).

**Q.** For `C/C(=N\NC(=O)c1cccc([N+](=O)[O-])c1O)c1ccccc1` [I-1, 3-nitrosalicylic (1-phenylethylidene)hydrazide], which melting point is on record?
**A.** Its melting point is 163 to 168 °C.
